According to patent US10017535B2, “Amphiphilic compounds with neuroprotective properties” (USTAV ORGANICKE CHEMIE A BIOCHEMIE AV CR, v.v.i., priority 2014, dated 2018):

What was measured:
[1] = molecular target: T1, NR1-1a/NR2B NMDA receptor (Rattus norvegicus, UniProt P35439+Q00960); assay: Patch-clamp inhibition of glutamate-evoked currents at recombinant NMDA receptors in transfected HEK293 cells; type: cell-based; conditions: for IC50: calculated from relative steroid-induced inhibition, Hill's coefficient 1.2, read-out: IC50
T1 construct: expressed in transfected cells; host or cells: HEK293 cells (ATCC CRL1573)
T1 sequence (Q00960 27-1482, other chains not shown): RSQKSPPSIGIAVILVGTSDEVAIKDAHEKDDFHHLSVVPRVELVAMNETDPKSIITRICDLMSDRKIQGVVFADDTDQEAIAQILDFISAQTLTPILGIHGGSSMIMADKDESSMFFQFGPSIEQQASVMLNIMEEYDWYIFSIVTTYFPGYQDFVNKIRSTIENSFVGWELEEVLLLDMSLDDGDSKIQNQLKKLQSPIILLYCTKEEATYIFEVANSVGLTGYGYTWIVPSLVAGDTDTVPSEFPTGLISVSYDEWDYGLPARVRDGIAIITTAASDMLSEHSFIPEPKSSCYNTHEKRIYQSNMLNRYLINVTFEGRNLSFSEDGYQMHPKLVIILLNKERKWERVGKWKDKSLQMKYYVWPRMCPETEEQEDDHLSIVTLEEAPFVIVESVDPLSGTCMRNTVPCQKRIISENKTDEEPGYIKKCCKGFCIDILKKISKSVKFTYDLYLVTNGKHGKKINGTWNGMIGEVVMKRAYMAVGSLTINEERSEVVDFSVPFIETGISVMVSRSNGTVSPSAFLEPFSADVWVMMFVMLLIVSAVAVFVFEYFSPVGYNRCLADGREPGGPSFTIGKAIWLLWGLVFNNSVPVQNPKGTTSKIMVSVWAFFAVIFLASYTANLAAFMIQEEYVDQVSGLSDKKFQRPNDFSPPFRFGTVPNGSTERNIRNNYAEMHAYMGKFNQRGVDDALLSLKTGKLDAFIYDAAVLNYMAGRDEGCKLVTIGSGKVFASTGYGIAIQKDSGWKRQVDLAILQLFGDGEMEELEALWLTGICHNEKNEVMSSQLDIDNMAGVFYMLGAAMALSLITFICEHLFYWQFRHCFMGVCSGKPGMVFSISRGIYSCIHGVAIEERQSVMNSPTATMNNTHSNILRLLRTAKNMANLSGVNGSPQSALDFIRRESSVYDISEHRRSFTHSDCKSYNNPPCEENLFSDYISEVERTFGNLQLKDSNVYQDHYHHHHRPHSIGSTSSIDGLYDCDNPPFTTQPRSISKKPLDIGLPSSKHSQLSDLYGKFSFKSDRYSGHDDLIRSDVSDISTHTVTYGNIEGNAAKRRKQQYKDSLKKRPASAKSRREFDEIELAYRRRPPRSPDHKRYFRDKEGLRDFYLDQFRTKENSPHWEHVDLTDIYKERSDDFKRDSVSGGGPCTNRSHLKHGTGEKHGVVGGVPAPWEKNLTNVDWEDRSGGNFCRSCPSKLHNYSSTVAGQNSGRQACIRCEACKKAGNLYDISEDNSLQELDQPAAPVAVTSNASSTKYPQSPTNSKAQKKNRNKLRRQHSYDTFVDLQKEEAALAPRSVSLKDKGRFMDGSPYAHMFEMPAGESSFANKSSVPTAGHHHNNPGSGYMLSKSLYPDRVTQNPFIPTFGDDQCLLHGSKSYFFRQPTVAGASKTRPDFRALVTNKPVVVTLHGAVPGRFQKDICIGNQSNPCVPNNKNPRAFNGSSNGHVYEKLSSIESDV
Outline: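 HEK293 cells co-transfected with rat NR1-1a/NR2B plus GFP were whole-cell patch-clamped 16-40 h post-transfection at −60 mV. Currents were evoked by 1 mmol·l^−1 glutamate with 10 μmol·l^−1 glycine in ECS pH 7.3, and steroid was co-applied in DMSO via fast perfusion. IC50 came from relative inhibition.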

[2] = system: laboratory mice, strain CD-1; assay: Open field test (locomotor activity, sedative effect); as to Open Field Test No Evidence of Hyperlocomotion: key: −: the desired effect was not observed; −/+: the desired effect was insufficient; +: the desired effect was observed; as to Sedative Effect The Rapid Onset of Sedation at a Dose of 100 mg/kg: key: −: the desired effect was not observed; −/+: the desired effect was insufficient; +: the desired effect was observed; type: in vivo; conditions: for pathway in open field: dose 10 and 100 mg/kg, vs intact mice; for locomotor activity over time: higher dose of 10 resp. 100 mg/kg; for Open Field Test No Evidence of Hyperlocomotion / Sedative Effect The Rapid Onset of Sedation at a Dose of 100 mg/kg: intraperitoneally; for Open Field Test No Evidence of Hyperlocomotion: 0.1-100 mg/kg; for hyperlocomotion in open field: lower doses (below 10 mg/kg)
Protocol: (§1) In the Experimental Part 1 were used adults (30-35 g) male laboratory mice, strain CD-1 from Velaz facility, Czech Republic. Mice were housed in plastic boxes with a 12-hour light cycle (lights on at 7:00 pm). Mice had free access to food and water.
Amphiphilic steroid compounds were dissolved in a solution of 3 g (2-hydroxypropyl)-β-cyclodextrin (CDX, Sigma-Aldrich) and 157 mg of citric acid ([…], Sigma-Aldrich) in 30 ml of distilled water, the pH was adjusted to 7.4 using sodium hydroxide (NaOH, Sigma-Aldrich). Thus there were prepared solutions of the four steroids for application rates of 0.1, 1, 10 and 100 mg/kg.
The efficacy of the studied compounds was compared to known NMDA antagonist is memantine (Sigma-Aldrich) at a dose of 5 mg/kg in rats, ketamine (Vétoquinol) at 10 mg/kg and dizocilpine (MK-801) (Sigma-Aldrich) at a dose of 0.3 mg/kg in mice. These three compounds were dissolved in saline (B Braun).
The substances at dose 0.1-100 mg/kg were administered before the test to mice intraperitoneally. As controls were used intact mice and mice that received CDX solution. Also, MK-801 (0.3 mg/kg) was used for comparison of effects of noncompetitive antagonist of NMDA receptors. From the experiment was evaluated overall track anywhere in the arena as an indicator of locomotor activity. In addition, it was judged a ten-minute segments track during each experiment. Based on these values, it was possible to determine the latency time of onset of action and changes in locomotor activity over time.
In this arrangement, the sedative effect of the studied compounds at the highest dose was evaluated. […] Over time was monitored locomotor activity and possible changes characterized by tremor, ataxia, restlessness, or sedation or general anesthesia (absence of response to stimuli, decreased muscle tone).

[3] = system: laboratory mice, strain CD-1; type: in vivo; conditions: intraperitoneally, 1 mg/kg; also: key: −: the desired effect was not observed; −/+: the desired effect was insufficient; +: the desired effect was observed
Protocol: as §1
Thus there were prepared solutions of the four steroids for application rates of 0.1, 1, 10 and 100 mg/kg.
Laboratory mouse was chosen as a model organism for this experiment. The following experiments were performed as described in Front Behay. Neurosci.
The purpose of the primary behavioral testing was quickly determined the effect of compounds on CNS dependent functions and any signs of toxicity. A simplified modification Irwin test was selected with respect to the behavioral profile of NMDA receptor antagonists. Mice were tested individually. The study drug was administered intraperitoneally (Table 3) at a dose of 1 mg/kg. The control group consisted of individuals that received the CDX solution or saline.

[4] = system: NMDA lesion of the dorsal hippocampus in rats; assay: Active allothetic place avoidance (AAPA) after bilateral excitotoxic NMDA lesion of dorsal hippocampus; type: in vivo, rat Long-Evans strain; conditions: for maximum time avoiding the sector, fourth session of AAPA / number of entries into the forbidden sector, fourth session of AAPA: 1 mg/kg after surgery, vs NMDA group
Protocol: In the Experimental Part 2 were used adult (3 months old, 300-400 g) male rat Long-Evans strain. The animals come from herds Institute of Physiology ASCR. The rats were housed in clear plastic boxes with the same light cycle as in mice. Animals had free access to food and water. All experiments were carried out in the light of clay. All experiments were carried out in accordance with the Law on protection of animals against cruelty.
The anesthetized rats were used in operations isoflurane (3.5%, Baxter). To recall excitotoxic lesion of the dorsal hippocampus was applied 0.05 mol·l^−1 solution of NMDA (Sigma-Aldrich) in 0.4 mol·l^−1 phosphate buffer solution prepared by mixing 356 g Na2HPO4.12H2O (Mw358.14) in 4.2 l of distilled water and a solution of 62.4 g NaHPO4. 2H2O (Mw156.01) in 0.8 l of distilled water. The pH of the resulting solution of NMDA was adjusted to 7.4 with NaOH.
In this experiment, the neuroprotective effects were evaluated for amphiphilic steroid compounds. The procedure was performed according to Neuropharmacology 61, 61-68 (2011)
The rats were randomly divided into eleven groups. The control group included operated animals, which were injected by phosphate buffer […] into the hippocampus. In the second group, the animals had NMDA lesions of the hippocampus. The animals of the third group were applied clinically used NMDA antagonist memantine at a dose of 5 mg/kg after NMDA lesion. The other groups were administered the compounds at a dose of 1 mg/kg.
The test was performed in rotating arena with prohibited sector in the form of a circular sector (60°). If the rat entered the sector, its limbs received weak electrical impulse.
Test memory and spatial cognition in rats using AAPA was evaluated over four sessions, which are in healthy rats sufficient to achieve asymptotic level (Behay. Brain. Res. 189, 139-144 (2008)). To evaluate memory and spatial cognition was used data from the fourth session, and the number of entries into the forbidden sector and the maximum avoidance sector. […] After the experiment, the localization of the lesion was histologically verified.
Data were analyzed using the non parametric test of Maim Whitney criteria using the GraphPad. The difference was considered significant for p<0.05, for a non-significant tendency then for 0.05<p<0.075.

[5] = system: laboratory mice, strain CD-1; assay: Passive avoidance test (aversive motivated memory); type: in vivo; as to Passive Avoidance Test No Memory Violation: key: −: the desired effect was not observed; −/+: the desired effect was insufficient; +: the desired effect was observed
Protocol: as §1
Aversive motivated memory test was evaluated on the basis of latency input into the preferred, but unpleasant sensation associated with delivery device.

[6] = system: laboratory mice, strain CD-1; assay: Forced swimming test (antidepressant effect); type: in vivo; conditions: reference substance ketamine (10 mg/kg)
Protocol: as §1
This assay was used to monitor the antidepressant effect. Animals float 6 minutes in acrylic cylinder in water at 24° C. A period of immobility is evaluated. The reduction is a manifestation of anti-depressant properties of drugs.

[7] = HEK293, read-out: Mean % change ± SD
[8] = memantine 5 mg/kg after NMDA lesion

SMILES: C=C1CC[C@H]2[C@@H]3CC[C@@H]4C[C@H](OC(=O)CC(=O)O)CC[C@]4(C)[C@H]3CC[C@]12C [Compound 67, 3-(((3R,5R,8R,9S,10S,13S,14S)-10,13-Dimethyl-17-methylenehexadecahydro-1H-cyclo-penta[a]phenanthren-3-yl)oxy)-3-oxopropanoic acid]
- inhibition at 20 µM [1, 7]: 53 ± 10.2%
- IC50 [1]: 18.9 µM
- pathway in open field [2]: significant reduction
- locomotor activity over time [2]: significant decrease
- Open Field Test No Evidence of Hyperlocomotion [2]: +
- Sedative Effect The Rapid Onset of Sedation at a Dose of 100 mg/kg [2]: +
- hyperlocomotion in open field [2]: not (unlike groups with dizocilpine) observed hyperlocomotion
- Behavioural Test No Evidence of Toxicity [3]: +
- maximum time avoiding the sector, fourth session of AAPA [4]: significantly increased
- number of entries into the forbidden sector, fourth session of AAPA [4]: significant reduction

SMILES: C=C1CC[C@H]2[C@@H]3CC[C@@H]4C[C@H](OC(=O)CCC(=O)O)CC[C@]4(C)[C@H]3CC[C@]12C [Compound 68, 4-(((3R,5R,8R,9S,10S,13S,14S)-10,13-Dimethyl-17-methylenhexadecahydro-1H-cyclopenta[a]phenanthren-3-yl)oxy)-4-oxobutanoic acid]
- inhibition at 5 µM [1, 7]: 24.2 ± 14.3%
- IC50 [1]: 18.8 µM
- pathway in open field [2]: significant reduction
- locomotor activity over time [2]: significant decrease
- Open Field Test No Evidence of Hyperlocomotion [2]: +
- Sedative Effect The Rapid Onset of Sedation at a Dose of 100 mg/kg [2]: +
- hyperlocomotion in open field [2]: not (unlike groups with dizocilpine) observed hyperlocomotion
- Behavioural Test No Evidence of Toxicity [3]: +
- maximum time avoiding the sector, fourth session of AAPA [4]: tendency to increase
- number of entries into the forbidden sector, fourth session of AAPA [4]: reduced number of entries
- Passive Avoidance Test No Memory Violation [5]: +

SMILES: C=C1CC[C@H]2[C@@H]3CC[C@@H]4C[C@H](OC(=O)CCCC(=O)O)CC[C@]4(C)[C@H]3CC[C@]12C [Compound 69, 5-(((3R,5R,8R,9S,10S,13S,14S)-10,13-Dimethyl-17-methylenhexadecahydro-1H-cyclopenta[a]phenanthren-3-yl)oxy)-5-oxopentanoic acid]
- inhibition at 20 µM [1, 7]: 62.9 ± 5.1%
- pathway in open field [2]: significant reduction
- locomotor activity over time [2]: significant decrease
- Open Field Test No Evidence of Hyperlocomotion [2]: +
- Sedative Effect The Rapid Onset of Sedation at a Dose of 100 mg/kg [2]: +
- hyperlocomotion in open field [2]: not (unlike groups with dizocilpine) observed hyperlocomotion
- Behavioural Test No Evidence of Toxicity [3]: +
- NMDA lession Improvement in Cognition in AAPA after NMDA Lession ([4]; 1 mg/kg after NMDA lesion): −/+

SMILES: C/C=C1/CC[C@H]2[C@@H]3CC[C@@H]4C[C@H](OC(=O)CCC(=O)O)CC[C@]4(C)[C@H]3CC[C@]12C [Compound 84, 4-(((3R,5R,8R,9S,10S,13S,14S,Z)-17-Ethylidene-10,13-dimethylhexadecahydro-1H-cyclopenta[a]phenanthren-3-yl)oxy)-4-oxobutanoic acid]
- pathway in open field [2]: significant reduction
- locomotor activity over time [2]: significant decrease
- Open Field Test No Evidence of Hyperlocomotion [2]: +
- Sedative Effect The Rapid Onset of Sedation at a Dose of 100 mg/kg [2]: +
- hyperlocomotion in open field [2]: not (unlike groups with dizocilpine) observed hyperlocomotion
- Behavioural Test No Evidence of Toxicity [3]: +
- maximum time avoiding the sector, fourth session of AAPA [4]: tendency to increase
- number of entries into the forbidden sector, fourth session of AAPA [4]: reduced number of entries
- Passive Avoidance Test No Memory Violation [5]: −/+
- memory impairment in the passive avoidance test ([5]; 1 mg/kg): Mild memory impairment

SMILES: CNC1(c2ccccc2Cl)CCCCC1=O (stereo not drawn) [ketamine, reference compound]
- antidepressant effect (decrease of flotation) [6]: showed antidepressant effect

SMILES: CC12CC3CC(C)(C1)CC(N)(C3)C2 [memantine, reference compound]
- maximum time avoidance, AAPA [4, 8]: tendency to increase
- number of entries into the forbidden sector, AAPA [4, 8]: reduced number of entries
